Reference: EP2857388A1, “Azoles containing sulfone” (Grünenthal GmbH, priority 2013, dated 2015)

Each compound was assayed against T1, human B1R (Homo sapiens, UniProt P46663) (assay: Functional assay at bradykinin receptor 1 (B1R): Ca2+ fluorescence (Fluo-4) in FLIPR/Novostar, antagonist mode). Details: test substance 10 µM; CHO K1 cells stably transfected with human B1R gene (hB1R-Zellen); agonist Lys-Des-Arg9-Bradykinin at EC80; % inhibition relative to maximal achievable inhibition; read-out: % Inhibierung (human B1R) bei 10 µM.
T1 construct: expressed in transfected cells; host or cells: CHO K1 cells (Chinese Hamster Ovary), stably transfected
T1 sequence (P46663 1-353): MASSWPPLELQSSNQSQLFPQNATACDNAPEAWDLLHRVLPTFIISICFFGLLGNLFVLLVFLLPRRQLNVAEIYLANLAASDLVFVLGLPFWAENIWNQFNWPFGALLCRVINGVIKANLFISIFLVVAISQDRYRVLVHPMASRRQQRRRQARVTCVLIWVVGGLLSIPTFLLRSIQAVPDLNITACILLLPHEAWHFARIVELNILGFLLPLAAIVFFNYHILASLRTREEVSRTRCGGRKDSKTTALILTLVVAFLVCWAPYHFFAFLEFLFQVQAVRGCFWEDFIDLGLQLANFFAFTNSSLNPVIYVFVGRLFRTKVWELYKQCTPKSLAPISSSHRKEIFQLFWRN
Assay type: cell-based
Method in brief: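 Antagonism read as suppression of the Ca2+ rise in Fluo-4-loaded, hB1R-transfected CHO K1 cells when Lys-Des-Arg9-bradykinin (EC80) follows a 6–20 min compound preincubation. Maximal fluorescence counts, measured on FLIPR or Novostar, yield % inhibition relative to maximum; IC50 values come from concentration series run in duplicate or triplicate.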
With COCCN1CCC(NC(=O)Cc2nc(CS(=O)(=O)c3cc(C)c(Cl)cc3C)no2)C(C)(C)C1 (stereo not shown) [CC-77, 2-[3-[[(4-Chlor-2,5-dimethyl-phenyl)sulfonyl]-methyl]-[1,2,4]oxadiazol-5-yl]-N-[1-(2-methoxy-ethyl)-3,3-dimethyl-piperidin-4-yl]-acetamid] the inhibition at 10 µM was 80%. Compound Cc1cc(S(=O)(=O)Cc2noc(CC(=O)NC3CCC(c4ccncc4)CC3(C)C)n2)c(C)cc1Cl (stereo not shown) [CC-80, 2-[3-[[(4-Chlor-2,5-dimethyl-phenyl)sulfonyl]-methyl]-[1,2,4]oxadiazol-5-yl]-N-(2,2-dimethyl-4-pyridin-4-yl-cyclohexyl)-acetamid] has an inhibition at 10 µM of 99%. Work on Cc1cc(S(=O)(=O)Cc2noc(CC(=O)NC3CCC(N(C)C)CC3)n2)c(C)cc1Cl (stereo not shown) [CC-81, 2-[3-[[(4-Chlor-2,5-dimethyl-phenyl)sulfonyl]-methyl]-[1,2,4]oxadiazol-5-yl]-N-(4-dimethylamino-cyclohexyl)-acetamid] yielded an inhibition at 10 µM of 79%. COc1cc(C)c(S(=O)(=O)Cc2nnc(CC(=O)NC3CCC(N4CCN(C)CC4)CC3(C)C)o2)c(C)c1 (stereo not shown) [CC-86, N-[2,2-Dimethyl-4-(4-methyl-piperazin-1-yl)-cyclohexyl]-2-[5-[[(4-methoxy-2,6-dimethylphenyl)sulfonyl)-methyl]-[1,3,4]oxadiazol-2-yl]-acetamid] showed an inhibition at 10 µM of 100%. For COc1cc(C)c(S(=O)(=O)Cc2nnc(CC(=O)N(C)C3CCNCC3(C)C)o2)c(C)c1 (stereo not shown) [CC-88, N-(3,3-Dimethyl-piperidin-4-yl)-2-[5-[[(4-methoxy-2,6-dimethyl-phenyl)sulfonyl]-methyl]-[1,3,4]oxadiazol-2-yl]-N-methyl-acetamid], the inhibition at 10 µM was 97%. Work on Cc1cccc(Cl)c1S(=O)(=O)Cc1noc(CC(=O)NC2CCNCC2)n1 [CC-90, 2-[3-[[(2-Chlor-6-methyl-phenyl)sulfonyl]-methyl]-[1,2,4]oxadiazol-5-yl]-N-piperidin-4-yl-acetamid] yielded an inhibition at 10 µM of 72%. With Cc1cccc(Cl)c1S(=O)(=O)Cc1noc(CC(=O)NC2CCC(N3CCCC3)CC2(C)C)n1 (stereo not shown) [CC-91, 2-[3-[[(2-Chlor-6-methyl-phenyl)sulfonyl]-methyl]-[1,2,4]oxadiazol-5-yl]-N-(2,2-dimethyl-4-pyrrolidin-1-yl-cyclohexyl)-acetamid] the inhibition at 10 µM was 97%. Cc1cccc(Cl)c1S(=O)(=O)Cc1noc(CC(=O)NC2CCC(N3CCCC3)CC2)n1 (stereo not shown) [CC-93, 2-[3-[[(2-Chlor-6-methyl-phenyl)sulfonyl]-methyl]-[1,2,4]oxadiazol-5-yl]-N-(4-pyrrolidin-1-yl-cyclohexyl)-acetamid] showed an inhibition at 10 µM of 100%. With COCCN1CCC(NC(=O)Cc2nc(CS(=O)(=O)c3c(C)cccc3Cl)no2)C(C)(C)C1 (stereo not shown) [CC-94, 2-[3-[[(2-Chlor-6-methyl-phenyl)sulfonyl]-methyl]-[1,2,4]oxadiazol-5-yl]-N-[1-(2-methoxy-ethyl)-3,3-dimethyl-piperidin-4-yl]-acetamid] the inhibition at 10 µM was 100%. Compound Cc1cccc(Cl)c1S(=O)(=O)Cc1noc(CC(=O)NC2CCC(NC3CC3)CC2(C)C)n1 (stereo not shown) [CC-95, 2-[3-[[(2-Chlor-6-methyl-phenyl)sulfonyl]-methyl]-[1,2,4]oxadiazol-5-yl]-N-[4-(cyclopropylamino)-2,2-dimethyl-cyclohexyl]-acetamid] has an inhibition at 10 µM of 100%. In the case of Cc1cccc(Cl)c1S(=O)(=O)Cc1noc(CC(=O)NC2CCN(C)CC2(C)C)n1 (stereo not shown) [CC-96, 2-[3-[[(2-Chlor-6-methyl-phenyl)sulfonyl]-methyl]-[1,2,4]oxadiazol-5-yl]-N-(1,3,3-trimethyl-piperidin-4-yl)-acetamid], the inhibition at 10 µM is reported as 100%. COc1cc(C)c(S(=O)(=O)Cc2nnc(CC(=O)NC3CCNCC3)o2)c(C)c1 [CC-97, 2-[5-[[(4-Methoxy-2,6-dimethyl-phenyl)sulfonyl]-methyl]-[1,3,4]oxadiazol-2-yl]-N-piperidin-4-yl-acetamid] was tested, and the inhibition at 10 µM was 98%. Cc1cccc(Cl)c1S(=O)(=O)Cc1noc(CC(=O)NC2CCC(N3CCN(C)CC3)CC2(C)C)n1 (stereo not shown) [CC-98, 2-[3-[[(2-Chlor-6-methyl-phenyl)sulfonyl]-methyl]-[1,2,4]oxadiazol-5-yl]-N-[2,2-dimethyl-4-(4-methyl-piperazin-1-yl)-cyclohexyl]-acetamid] showed an inhibition at 10 µM of 100%. Compound Cc1cc(S(=O)(=O)Cc2noc(CC(=O)N(C)C3CCNCC3(C)C)n2)c(C)cc1Cl (stereo not shown) [CC-100, 2-[3-[[(4-Chlor-2,5-dimethyl-phenyl)sulfonyl]-methyl]-[1,2,4]oxadiazol-5-yl]-N-(3,3-dimethyl-piperidin-4-yl)-N-methyl-acetamid] has an inhibition at 10 µM of 58%. Compound COc1cc(C)c(S(=O)(=O)Cc2nc(CC(=O)N(C)C3CCNCC3(C)C)no2)c(C)c1 (stereo not shown) [CC-101, N-(3,3-Dimethyl-piperidin-4-yl)-2-[5-[[(4-methoxy-2,6-dimethyl-phenyl)sulfonyl]-methyl]-[1,2,4]oxadiazol-3-yl]-N-methyl-acetamid] has an inhibition at 10 µM of 100%. For COc1cc(C)c(S(=O)(=O)Cc2nc(CC(=O)NC3CCN(C)CC3(C)C)no2)c(C)c1 (stereo not shown) [CC-102, 2-[5-[[(4-Methoxy-2,6-dimethyl-phenyl)sulfonyl]-methyl]-[1,2,4]oxadiazol-3-yl]-N-(1,3,3-trimethyl-piperidin-4-yl)-acetamid], the inhibition at 10 µM was 100%. With Cc1cc(S(=O)(=O)Cc2noc(CC(=O)NC3CCN(C)CC3(C)C)n2)c(C)cc1Cl (stereo not shown) [CC-105, 2-[3-[[(4-Chlor-2,5-dimethyl-phenyl)sulfonyl]-methyl]-[1,2,4]oxadiazol-5-yl]-N-(1,3,3-trimethyl-piperidin-4-yl)-acetamid] the inhibition at 10 µM was 88%. Work on CC1(C)CC(N2CCCC2)CCC1NC(=O)Cc1nc(CS(=O)(=O)c2cccc(Cl)c2Cl)no1 (stereo not shown) [CC-106, 2-[3-[[(2,3-Dichlor-phenyl)sulfonyl]-methyl]-[1,2,4]oxadiazol-5-yl]-N-(2,2-dimethyl-4-pyrrolidin-1-yl-cyclohexyl)-acetamid] yielded an inhibition at 10 µM of 82%. Cc1cccc(Cl)c1S(=O)(=O)Cc1noc(CC(=O)N(C2CCC(N(C)C)CC2)C2CC2)n1 (stereo not shown) [CC-108, 2-[3-[[(2-Chlor-6-methyl-phenyl)sulfonyl]-methyl]-[1,2,4]oxadiazol-5-yl]-N-cyclopropyl-N-(4-dimethylamino-cyclohexyl)-acetamid] was tested, and the inhibition at 10 µM was 88%. With CC1(C)CC(c2ccncc2)CCC1NC(=O)Cc1nc(CS(=O)(=O)c2cccc(Cl)c2Cl)no1 (stereo not shown) [CC-109, 2-[3-[[(2,3-Dichlor-phenyl)sulfonyl]-methyl]-[1,2,4]oxadiazol-5-yl]-N-(2,2-dimethyl-4-pyridin-4-yl-cyclohexyl)-acetamid] the inhibition at 10 µM was 100%. Cc1cccc(Cl)c1S(=O)(=O)Cc1noc(CC(=O)N(C)C2CCNCC2(C)C)n1 (stereo not shown) [CC-110, 2-[3-[[(2-Chlor-6-methyl-phenyl)sulfonyl]-methyl]-[1,2,4]oxadiazol-5-yl]-N-(3,3-dimethyl-piperidin-4-yl)-N-methyl-acetamid] showed an inhibition at 10 µM of 87%. For COc1cc(C)c(S(=O)(=O)Cc2nnc(CC(=O)NC3CCN(C)CC3(C)C)o2)c(C)c1 (stereo not shown) [CC-111, 2-[5-[[(4-Methoxy-2,6-dimethyl-phenyl)sulfonyl]-methyl]-[1,3,4]oxadiazol-2-yl]-N-(1,3,3-trimethyl-piperidin-4-yl)-acetamid], the inhibition at 10 µM was 100%. Compound CN(C)C1CCC(N(C(=O)Cc2nc(CS(=O)(=O)c3cccc(Cl)c3Cl)no2)C2CC2)CC1 (stereo not shown) [CC-112, N-Cyclopropyl-2-[3-[[(2,3-dichlor-phenyl)sulfonyl]-methyl]-[1,2,4]oxadiazol-5-yl]-N-(4-dimethyl-amino-cyclohexyl)-acetamid] has an inhibition at 10 µM of 67%. Work on COc1cc(C)c(S(=O)(=O)Cc2nc(CC(=O)N(C3CCC(N(C)C)CC3)C3CC3)no2)c(C)c1 (stereo not shown) [CC-116, N-Cyclopropyl-N-(4-dimethylamino-cyclohexyl)-2-[5-[[(4-methoxy-2,6-dimethyl-phenyl)sulfonyl]-methyl]-[1,2,4]oxadiazol-3-yl]-acetamid] yielded an inhibition at 10 µM of 100%. For COc1cc(C)c(S(=O)(=O)Cc2c(C)nn(CC(=O)N(C3CCC(N(C)C)CC3)C3CC3)c2C)c(C)c1 (stereo not shown) [CC-118, N-Cyclopropyl-N-(4-dimethylamino-cyclohexyl)-2-[4-[[(4-methoxy-2,6-dimethyl-phenyl)sulfonyl]-methyl]-3,5-dimethyl-1H-pyrazol-1-yl]-acetamid], the inhibition at 10 µM was 93%. COc1cc(C)c(S(=O)(=O)Cc2nnc(CC(=O)N(C3CCC(N(C)C)CC3)C3CC3)o2)c(C)c1 (stereo not shown) [CC-124, N-Cyclopropyl-N-(4-dimethylamino-cyclohexyl)-2-[5-[[(4-methoxy-2,6-dimethyl-phenyl)sulfonyl]-methyl]-[1,3,4]oxadiazol-2-yl]-acetamid] was tested, and the inhibition at 10 µM was 100%. For COc1cc(C)c(S(=O)(=O)Cc2cc(C)n(CC(=O)NC3CCC(c4ccncc4)CC3(C)C)n2)c(C)c1 (stereo not shown) [CC-127, N-(2,2-Dimethyl-4-pyridin-4-yl-cyclohexyl)-2-[3-[[(4-methoxy-2,6-dimethyl-phenyl)sulfonyl)-methyl]-5-methyl-1 H-pyrazol-1-yl]-acetamid], the inhibition at 10 µM was 68%. Compound COc1cc(C)c(S(=O)(=O)Cc2noc(C(=O)N3CCC(N4CCN(C)CC4)CC3)n2)c(C)c1 [CC-129, [3-[[(4-Methoxy-2,6-dimethyl-phenyl)sulfonyl]-methyl]-[1,2,4]oxadiazol-5-yl]-[4-(4-methyl-piperazin-1-yl)-piperidin-1-yl]-methanon] has an inhibition at 10 µM of 100%.
